Data reported in patent publication US20240261295A1, “COMBINATIONS OF WEE1 INHIBITORS AND ANTI-CD47 ANTIBODIES” (Recurium IP Holdings, LLC, priority 2021, published 2024).

Tested on: RPMI-8226 cells
Experiment: RPMI-8226 xenograft model, tumor volume
Assay type: in vivo, Mice
Conditions: ZN-c3 60 mg/kg p.o. qd×21, single agent, RPMI-8226 subcutaneous xenograft
Description: Mice were inoculated with RPMI-8226 cells subcutaneously on the right flank with the single cell suspension of 95% viable tumor cells ([…]) in 100 μL RPMI 1640 Matrigel mixture (1:1 ratio) without serum for the tumor development. The treatment was started when the mean tumor size reached approximately 200 mm^3, with individual tumor size ranging from 185-235 mm^3. Animals were randomly distributed into treatment groups of 10 animals each and dosed with vehicle and indicated compounds at the indicated dosage and frequency shown in FIG. 2 and Table 1. In FIG. 2, the bottom line with circles is ZN-c3 60 mg/kg p.o. qd×21+Anti-CD47 20 mg/kg ip BIW×3. Anti-CD47 was obtained from Bio X Cell (clone B6.H12, catalog number BE0019-1). Tumor volumes were evaluated twice per week to calculate tumor volume over time, and the mice were weighed twice per week as a surrogate for signs of toxicity. Tumor growth inhibition (TGI) was calculated using the following equation TGI=(1−(Td−T0)/(Cd−C0))×100%. Td and Cd are the mean tumor volumes of the treated and control animals, and T0 and C0 are the mean tumor volumes of the treated and control animals at the start of the experiment. The tumor regression was defined as individual tumor volume (TV) decrease (terminal TV compared to initial TV). The percent tumor regression was calculated using the formula: (1−(Td/T0))×100%.

C=CCn1c(=O)c2cnc(Nc3ccc(N4CCN(C)CC4)cc3)nc2n1-c1ccc2c(n1)[C@@](O)(CC)CC2 [ZN-c3]
TGI % (Day 21): 61%
